PubChem BioAssay AID1963973 (Molecular Pharmacology Branch, DTP, NCI, 2024)

Tested on: 883617-216-R-J1-PDC tumor spheroids, viability
Assay: Anticancer human tumor 883617-216-R-J1-PDC patient-derived bladder carcinoma cell line growth inhibition [PI3K]
Conditions: spheroids with HUVEC and MSC; for IC50: curve of first compound; for viability, T/C: stronger effect = lower value
How it was run: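 Viability of mixed-cell spheroids was determined after exposure to pairwise combinations, one partner being inavolisib, alpelisib, duvelisib or copanlisib. Highest tested concentration matched clinical Cmax where known and 10 microM where not, descending in half-log steps.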

[1] = second compound 0.0316 µM, first compound 0.0316 µM
[2] = second compound 0.0316 µM, first compound 0.1 µM
[3] = second compound 0.0316 µM, first compound 0.316 µM
[4] = second compound 0.0316 µM, first compound 1 µM
[5] = second compound 0.0316 µM, first compound 3.16 µM
[6] = second compound 0.0316 µM, first compound 10 µM
[7] = second compound 0.1 µM, first compound 0.0316 µM
[8] = second compound 0.1 µM, first compound 0.1 µM
[9] = second compound 0.1 µM, first compound 0.316 µM
[10] = second compound 0.1 µM, first compound 1 µM
[11] = second compound 0.1 µM, first compound 3.16 µM
[12] = second compound 0.1 µM, first compound 10 µM
[13] = second compound 0.316 µM, first compound 0.0316 µM
[14] = second compound 0.316 µM, first compound 0.1 µM
[15] = second compound 0.316 µM, first compound 0.316 µM
[16] = second compound 0.316 µM, first compound 1 µM
[17] = second compound 0.316 µM, first compound 3.16 µM
[18] = second compound 0.316 µM, first compound 10 µM
[19] = second compound 1 µM, first compound 0.0316 µM
[20] = second compound 1 µM, first compound 0.1 µM
[21] = second compound 1 µM, first compound 0.316 µM
[22] = second compound 1 µM, first compound 1 µM
[23] = second compound 1 µM, first compound 3.16 µM
[24] = second compound 1 µM, first compound 10 µM
[25] = second compound 3.16 µM, first compound 0.0316 µM
[26] = second compound 3.16 µM, first compound 0.1 µM
[27] = second compound 3.16 µM, first compound 0.316 µM
[28] = second compound 3.16 µM, first compound 1 µM
[29] = second compound 3.16 µM, first compound 3.16 µM
[30] = second compound 3.16 µM, first compound 10 µM
[31] = second compound 10 µM, first compound 0.0316 µM
[32] = second compound 10 µM, first compound 0.1 µM
[33] = second compound 10 µM, first compound 0.316 µM
[34] = second compound 10 µM, first compound 1 µM
[35] = second compound 10 µM, first compound 3.16 µM
[36] = second compound 10 µM, first compound 10 µM
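Note: spheroids exposed to agents for 7 days before the viability read.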

C#Cc1c(F)ccc2cc(O)cc(-c3ncc4c(N5CC6CCC(C5)N6)nc(OCC56CCCN5CC(F)C6)nc4c3F)c12 (stereo unspecified) + CC(Nc1ncnc2nc[nH]c12)c1cc2cccc(Cl)c2c(=O)n1-c1ccccc1
IC50 (second compound 0.0316 µM): > 10 µM | IC50 (second compound 0.1 µM): > 10 µM | IC50 (second compound 0.316 µM): > 10 µM | IC50 (second compound 1 µM): > 10 µM | IC50 (second compound 3.16 µM): 5.97 µM | IC50 (second compound 10 µM): 0.12 µM | viability, T/C [1]: 91.5% | viability, T/C [2]: 109% | viability, T/C [3]: 84.2% | viability, T/C [4]: 94.8% | viability, T/C [5]: 78% | viability, T/C [6]: 61.1% | viability, T/C [7]: 101% | viability, T/C [8]: 96.7% | viability, T/C [9]: 95.1% | viability, T/C [10]: 84.9% | viability, T/C [11]: 94.8% | viability, T/C [12]: 56.5% | viability, T/C [13]: 77.6% | viability, T/C [14]: 86.1% | viability, T/C [15]: 78.5% | viability, T/C [16]: 94.3% | viability, T/C [17]: 76.4% | viability, T/C [18]: 54.5% | viability, T/C [19]: 84.1% | viability, T/C [20]: 81.9% | viability, T/C [21]: 74.2% | viability, T/C [22]: 73% | viability, T/C [23]: 69.9% | viability, T/C [24]: 49.7% | viability, T/C [25]: 77.6% | viability, T/C [26]: 70.4% | viability, T/C [27]: 60.3% | viability, T/C [28]: 70.7% | viability, T/C [29]: 55.1% | viability, T/C [30]: 44.3% | viability, T/C [31]: 52.1% | viability, T/C [32]: 56.4% | viability, T/C [33]: 39.1% | viability, T/C [34]: 45.1% | viability, T/C [35]: 33.2% | viability, T/C [36]: 26.6%

CC(Cn1ccc(-c2ccc(C#N)c(Cl)c2)n1)NC(=O)c1cc(C(C)O)[nH]n1 (stereo unspecified) + CC(Nc1ncnc2nc[nH]c12)c1cc2cccc(Cl)c2c(=O)n1-c1ccccc1
IC50 (second compound 0.0316 µM): > 10 µM | IC50 (second compound 0.1 µM): > 10 µM | IC50 (second compound 0.316 µM): > 10 µM | IC50 (second compound 1 µM): > 10 µM | IC50 (second compound 3.16 µM): > 10 µM | IC50 (second compound 10 µM): < 0.0316 µM | viability, T/C [1]: 98.1% | viability, T/C [2]: 104% | viability, T/C [3]: 90.5% | viability, T/C [4]: 103% | viability, T/C [5]: 103% | viability, T/C [6]: 95.3% | viability, T/C [7]: 94.5% | viability, T/C [8]: 84.7% | viability, T/C [9]: 84.6% | viability, T/C [10]: 100% | viability, T/C [11]: 95.3% | viability, T/C [12]: 97% | viability, T/C [13]: 95.8% | viability, T/C [14]: 92.9% | viability, T/C [15]: 90.7% | viability, T/C [16]: 97.9% | viability, T/C [17]: 95.5% | viability, T/C [18]: 90.7% | viability, T/C [19]: 78.3% | viability, T/C [20]: 77.1% | viability, T/C [21]: 78.3% | viability, T/C [22]: 86.9% | viability, T/C [23]: 90.8% | viability, T/C [24]: 76.8% | viability, T/C [25]: 76.7% | viability, T/C [26]: 70.9% | viability, T/C [27]: 61.2% | viability, T/C [28]: 61% | viability, T/C [29]: 68.1% | viability, T/C [30]: 74.2% | viability, T/C [31]: 52.9% | viability, T/C [32]: 43.1% | viability, T/C [33]: 44.6% | viability, T/C [34]: 51.4% | viability, T/C [35]: 43.7% | viability, T/C [36]: 50%

CC1(C)CCC(Nc2ncc(C(F)(F)F)c(-c3c[nH]c4c(P(C)(C)=O)c(C#N)ccc34)n2)CN1 (stereo unspecified) + CC(Nc1ncnc2nc[nH]c12)c1cc2cccc(Cl)c2c(=O)n1-c1ccccc1
IC50 (second compound 0.0316 µM): < 0.0316 µM | IC50 (second compound 0.1 µM): < 0.0316 µM | IC50 (second compound 0.316 µM): < 0.0316 µM | IC50 (second compound 1 µM): < 0.0316 µM | IC50 (second compound 3.16 µM): < 0.0316 µM | IC50 (second compound 10 µM): < 0.0316 µM | viability, T/C [1]: 37.5% | viability, T/C [2]: 37.6% | viability, T/C [3]: 36.1% | viability, T/C [4]: 31.7% | viability, T/C [5]: 14.5% | viability, T/C [6]: 0.45% | viability, T/C [7]: 36.2% | viability, T/C [8]: 30.1% | viability, T/C [9]: 32.6% | viability, T/C [10]: 30.9% | viability, T/C [11]: 13.9% | viability, T/C [12]: 1.12% | viability, T/C [13]: 33.4% | viability, T/C [14]: 35.1% | viability, T/C [15]: 31.1% | viability, T/C [16]: 26.5% | viability, T/C [17]: 13.9% | viability, T/C [18]: 1.62% | viability, T/C [19]: 33.6% | viability, T/C [20]: 33.7% | viability, T/C [21]: 28.8% | viability, T/C [22]: 28.1% | viability, T/C [23]: 11.7% | viability, T/C [24]: 0.54% | viability, T/C [25]: 29.7% | viability, T/C [26]: 27.3% | viability, T/C [27]: 28.8% | viability, T/C [28]: 24.7% | viability, T/C [29]: 15% | viability, T/C [30]: 1.34% | viability, T/C [31]: 25.7% | viability, T/C [32]: 20.8% | viability, T/C [33]: 21.8% | viability, T/C [34]: 20.9% | viability, T/C [35]: 19.2% | viability, T/C [36]: 0.84%
